Results from PMC4010497, “Synthesis and Evaluation of Fluorine-Substituted Phenyl Acetate Derivatives as Ultra-Short Recovery Sedative/Hypnotic Agents” (PLoS ONE, 2014).

Experiments:
in vivo = settings: mouse, in vivo, mice, 95% confidence limits
Description: (§1) The LD50 was determined in mice, rats, and rabbits and the TI was calculated as LD50/HD50.

mice [1] = assay: in vivo; settings: LD50/HD50
Description: as §1

GABAA receptor = assay: GABAA radioligand binding assay ([3H]EBOB); settings: 50 µM compound, 0.5 nM [3H]EBOB, rat frontoparietal cortex
Description: All the new compounds were dissolved in 5% DMSO.
Specific binding was determined in the presence of compounds.
Membrane suspensions were thawed and centrifuged in incubation buffer at 10,000×g for 10 min and washed by a similar centrifugation. For displacement studies, membrane suspensions (5 mg original wet wt./ml) were incubated with 0.5 nM [^3H]EBOB ([…], Perkin Elmer Life Sciences, Boston, MA, USA) in the absence or presence of 50 µM of new compounds or reference drug for 2 h at 25°C. Nonspecific binding was determined in the presence of 10 µM Bicuculline. Bicuculline and picrotoxin were frequently used to determine the nonspecific binding when [3H]EBOB as radioligand [17]. Triplicate 1 ml samples were filtered on Whatman GF/B filters under vacuum with a Brandel Harvester and washed with 3×3 ml ice-cold buffer.

mice [2] = assay: animal or person; type: in vivo; settings: mice; for ED50: Mus musculus, IV over 10 s, 95% confidence limits, read-out: HD50 (the source's name); for Duration of LORR: IV 2× HD50, mean ± SD (n = 10); for Onset time: IV, mean ± SD (n = 10)
Description: All tests were performed during the light period. Groups of mice, rats and rabbits were injected intravenously (lateral tail vein) over 10 s with each dose of test compound, placed in separate boxes to reduce external stimuli and assessed for the loss of righting reflex. Dosing was performed using mg/kg scheme. A set of dose levels was chosen, and depending on whether the loss of righting reflex was observed, extra doses were introduced to provide data for the loss of righting reflex over a narrow dose range to allow potency calculations. From the percentage of mice, rats and rabbits in each group showing loss of righting reflex for ≥30 s, a probit analysis (SAS Institute) was performed to obtain an HD50 for each compound with 95% confidence limits.
Immediately following the injection, the mice, rats and rabbits were tested for loss of righting reflex. […] Once a loss was observed, the interval between the loss of righting reflex and the return to righting reflex was recorded. The anesthetized animals recovered righting reflexes spontaneously. To compare the duration of LORR of each compound at equipotent doses, groups of mice, rats and rabbits were injected with each compound at 2× HD50 over 10 s.
Time to walk was the time required after righting before mice and rabbits walked from the center to the periphery of a 30-cm diameter dise.
The rotarod test was conducted to evaluate the recovery to the motor coordination. Before the LORR test, mice were trained for 2 consecutive days. Trained mice could maintain their balance on rod for more than 2 mins. After the mice could walk from the center to the periphery of a 30-cm diameter dise, they were put on the rotarod. Mice were classified as behavioral recovery when, on being placed on the rod, they could maintain their balance for 20 s. The time to behavioral recovery was the time required after mice walked from the centre to the periphery of a 30-cm diameter disc before they could maintain their balance on rod for 20 s.

[3] = Octanol:water partition coefficient; type: physicochemical; settings: water buffered with 10 mm Tris (pH 7.4)
Description: One mg of each hypnotic was added to 10 ml of water buffered with 10 mm Tris (pH 7.4) and 1 ml of octanol. The mixture was stirred overnight and then centrifuged to fully separate the organic and aqueous phases. The relative hypnotic concentration in each phase (i.e., the partition coefficient) was determined by high-performance liquid chromatography as described for blood.

SMILES: CCOC(=O)Cc1ccc(OCC(=O)N(CC)CC)c(OC(F)(F)F)c1 [Compound 5a, Ethyl 2-(4-(2-(diethylamino)-2-oxoethoxy)-3-(trifluoromethoxy)phenyl)acetate]
- LD50 (in vivo): 442 mg/kg
- TI (mice [1]): 6.1
- GABAA binding (50 µmol) (Mean ± SD), percentage of inhibition (GABAA receptor): 69.1±4.2%
- ED50 (mice [2]): 72.5 mg/kg
- Duration of LORR (mice [2]): 155.2 ± 10.3 s
- Onset time (mice [2]): 35.1 ± 6.8 s
- Octanol:Water Partition (Coefficient ± SD) [3]: 2157±185

SMILES: CCCOC(=O)Cc1ccc(OCC(=O)N(CC)CC)c(OC(F)(F)F)c1 [Compound 5b, propyl 2-(4-(2-(diethylamino)-2-oxoethoxy)-3-(trifluoromethoxy)phenyl)acetate]
- LD50 (in vivo; intravenous): 346 mg/kg
- TI (mice [1]): 5.9
- GABAA binding (50 µmol) (Mean ± SD), percentage of inhibition (GABAA receptor): 73.9±5.3%
- ED50 (mice [2]): 58.7 mg/kg
- Duration of LORR (mice [2]): 162.6 ± 15.7 s
- Onset time (mice [2]): 32.4 ± 5.6 s
- Octanol:Water Partition (Coefficient ± SD) [3]: 4745±280

SMILES: CCN(CC)C(=O)COc1ccc(CC(=O)OCC(F)(F)F)cc1OC(F)(F)F [Compound 5c, 2,2,2-trifluoroethyl 2-(4-(2-(diethylamino)-2-oxoethoxy)-3-(trifluoromethoxy)phenyl)acetate]
- GABAA binding (50 µmol) (Mean ± SD), percentage of inhibition (GABAA receptor): 30.4±3.5%
- anesthetic potency (in words) (mice [2]): poor anesthetic potency
- Octanol:Water Partition (Coefficient ± SD) [3]: 3427±130

SMILES: CCOC(=O)Cc1ccc(OCC(=O)N(CC)CC)c(OCC(F)(F)F)c1 [Compound 5d, ethyl 2-(4-(2-(diethylamino)-2-oxoethoxy)-3-(2,2,2-trifluoroethoxy)phenyl)acetate]
- LD50 (in vivo): 260 mg/kg
- TI (mice [1]): 5.5
- GABAA binding (50 µmol) (Mean ± SD), percentage of inhibition (GABAA receptor): 67.7±3.2%
- ED50 (mice [2]): 47.4 mg/kg
- Duration of LORR (mice [2]): 181.9 ± 14.3 s
- Onset time (mice [2]): 25.2 ± 3.8 s
- Octanol:Water Partition (Coefficient ± SD) [3]: 778±77

SMILES: CCCOC(=O)Cc1ccc(OCC(=O)N(CC)CC)c(OCC(F)(F)F)c1 [Compound 5e, propyl 2-(4-(2-(diethylamino)-2-oxoethoxy)-3-(2,2,2-trifluoroethoxy)phenyl)acetate]
- LD50 (in vivo): 250 mg/kg
- TI (mice [1]): 5.7
- GABAA binding (50 µmol) (Mean ± SD), percentage of inhibition (GABAA receptor): 72.2±6.5%
- ED50 (mice [2]): 43.8 mg/kg
- Duration of LORR (mice [2]): 224.6 ± 19.5 s
- Onset time (mice [2]): 23.4 ± 4.6 s
- Octanol:Water Partition (Coefficient ± SD) [3]: 872±65

SMILES: CCN(CC)C(=O)COc1ccc(CC(=O)OCC(F)(F)F)cc1OCC(F)(F)F [Compound 5f, 2,2,2-trifluoroethyl 2-(4-(2-(diethylamino)-2-oxoethoxy)-3-(2,2,2-trifluoroethoxy)phenyl)acetate]
- GABAA binding (50 µmol) (Mean ± SD), percentage of inhibition (GABAA receptor): 45.4±4.3%
- anesthetic potency (in words) (mice [2]): poor anesthetic potency
- Octanol:Water Partition (Coefficient ± SD) [3]: 1452±156

SMILES: CCN(CC)C(=O)COc1ccc(CC(=O)OCC(F)(F)F)cc1OC [Compound 5g, 2,2,2-trifluoroethyl 2-(4-(2-(diethylamino)-2-oxoethoxy)-3-methoxyphenyl)acetate]
- LD50 (in vivo): 363 mg/kg
- TI (mice [1]): 6.1
- GABAA binding (50 µmol) (Mean ± SD), percentage of inhibition (GABAA receptor): 87.2±5.7%
- ED50 (mice [2]): 59.6 mg/kg
- Time to walk (mice [2]; 2× HD50): 22.5 ± 6.9 s
- time to behavioral recovery (mice [2]; 2× HD50, rotarod): 46.5 ± 8.5 s
- Duration of LORR (mice [2]): 44.8 ± 2.1 s
- Onset time (mice [2]): 6.2 ± 0.4 s
- Octanol:Water Partition (Coefficient ± SD) [3]: 597±68

SMILES: CCN(CC)C(=O)COc1ccc(CC(=O)OCCC(F)(F)F)cc1OC [Compound 5h, 3,3,3-trifluoropropyl 2-(4-(2-(diethylamino)-2-oxoethoxy)-3-methoxyphenyl)acetate]
- GABAA binding (50 µmol) (Mean ± SD), percentage of inhibition (GABAA receptor): 80.3±7.6%
- ED50 (mice [2]): 25.6 mg/kg
- Duration of LORR (mice [2]): 69.3 ± 7.8 s
- Onset time (mice [2]): 7.5 ± 1.2 s
- Octanol:Water Partition (Coefficient ± SD) [3]: 792±36

SMILES: CCN(CC)C(=O)COc1ccc(CC(=O)OC(C)C(F)(F)F)cc1OC (stereo not shown) [Compound 5i, 1,1,1-trifluoropropan-2-yl 2-(4-(2-(diethylamino)-2-oxoethoxy)-3-methoxyphenyl)acetate]
- LD50 (in vivo): 112 mg/kg
- TI (mice [1]): 5.5
- GABAA binding (50 µmol) (Mean ± SD), percentage of inhibition (GABAA receptor): 81.6±10.5%
- ED50 (mice [2]): 21.1 mg/kg
- Duration of LORR (mice [2]): 80.1 ± 9.3 s
- Onset time (mice [2]): 7.2 ± 0.5 s
- Octanol:Water Partition (Coefficient ± SD) [3]: 1857±124

SMILES: CCOc1cc(CC(=O)OCCC(F)(F)F)ccc1OCC(=O)N(CC)CC [Compound 5k, 3,3,3-trifluoropropyl 2-(4-(2-(diethylamino)-2-oxoethoxy)-3-ethoxyphenyl)acetate]
- GABAA binding (50 µmol) (Mean ± SD), percentage of inhibition (GABAA receptor): 74.0±6.3%
- ED50 (mice [2]): 29.2 mg/kg
- Duration of LORR (mice [2]): 65.6 ± 6.8 s
- Onset time (mice [2]): 7.6 ± 0.9 s
- Octanol:Water Partition (Coefficient ± SD) [3]: 667±102

SMILES: CCOc1cc(CC(=O)OC(C)C(F)(F)F)ccc1OCC(=O)N(CC)CC (stereo not shown) [Compound 5l, 1,1,1-trifluoropropan-2-yl 2-(4-(2-(diethylamino)-2-oxoethoxy)-3-ethoxyphenyl)acetate]
- LD50 (in vivo): 103 mg/kg
- TI (mice [1]): 5.1
- GABAA binding (50 µmol) (Mean ± SD), percentage of inhibition (GABAA receptor): 79.5±10.0%
- ED50 (mice [2]): 20.7 mg/kg
- Duration of LORR (mice [2]): 121.2 ± 11.5 s
- Onset time (mice [2]): 7.3 ± 1.1 s
- Octanol:Water Partition (Coefficient ± SD) [3]: 2857±400
